Values quoted from earlier work in US8097743B2, “Process for manufacture of blocked mercaptosilane coupling agents” (Momentive Performance Materials Inc., priority 2002, dated 2012).

Settings: cited from earlier work

CCN(CC)CC [TEA, triethylamine]
Miscibility with water (classification) (below 18.7° C.): completely miscible

CCCN(CCC)CCC [TNPA, tri-n-propylamine]
Solubility in water (classification): very slightly soluble
